# Data reported in patent US20240239829A1 (priority 2021, published 2024).
# Like-named read-outs stand apart in the source and are kept apart here.
# Columns and labels:
# [1] = for stability: compound alone, 5 mg/ml, 37° C., SGF pH 1.0, PBS pH 4.5, SIF pH 7.3, 0.5-6 hours
# [2] = system: A/PR/8/34(H1N1) influenza virus; design: species or system C57BL/6J mice; conditions: mouse, in vivo
# [3] = system: A/H3N2/Hong Kong/1/68 influenza virus; design: species or system C57BL/6J mice; conditions: mouse, in vivo
# [4] = system: respiratory infection; assay: Prevention of respiratory infections of weaning piglets; assay type: in vivo
# Source text: The sick rate was about 10% and the death rate was about 5%. […] Control feed comprised 500 grams of Tilmicosin per 1000 kg. The nursery feeds were given to 763 of weaning piglets and 750 of controls from day 15 of the weaning period.
# [5] = system: human inflammatory tissues or cancer tissues; assay: Antibody binding to human diseased tissues (tissue array slides); conditions: respiratory, cardiovascular, urinary and digestive system
# Source text: (§1) Further, the Regn10987 antibody from COVID-19 infected patient and fetal tissues or multiple diseased tissues of tissue array slides (purchased from US Biomax) were used to evaluate the pathogenicity of the antibody specific to the SARS-CoV-2 S1 protein. […] In addition, the Regn10987 bound broadly to the human inflammatory tissues or cancer tissues of respiratory, cardiovesvular, urinary and digestive system (FIGS. 17A and 17B). The human inflammatory diseases tested include pneumonia, bronchitis, bronchiectasis, valvular disease, rheumatoid valvular disease, myocarditis, esophagitis, gastritis, collitis, appendicitis, pancreatitis, and hepatitis. The cancer tissues tested include small cell lung carcinoma, kidney clear cell carcinoma, and myxoma.
# [6] = system: human lung epithelium cell line A549; assay: Antibody binding to healthy or damaged A549 cells; assay type: cell-based
# [7] = system: human fetal tissues; assay: Antibody binding to human fetal tissues (tissue array slides); conditions: lung, heart, kidney, brain, pancreas, liver, thymus and testicle
# Source text: as §1
# [8] = system: fetus and newborn mouse pups of timed-pregnant mice
compound,measurement,setting,value
"CC(=O)N[C@H]1[C@H]([C@H](O)[C@H](O)CO)OC(O)(C(=O)O)C[C@@H]1O (some centres unmarked) [NANA, N-acetylneuraminic acid]",stability,[1],stable at all the pH conditions
"COC(=O)[C@]1(O)CC(O)[C@@H](NC(C)=O)C(C(O)[C@H](O)CO)O1 (some centres unmarked) [NANA-Me, N-acetylneuraminic acid methyl ester]",deaths (survival rate),[2]; pH 1.5,ineffective
same,deaths (survival rate),[2]; pH 3.5,ineffective
same,deaths (survival rate),[2]; pH 4.5,significantly reduced deaths
same,deaths (survival rate),[2]; pH 7,ineffective
same,stability,[1],most stable at about pH 4.5 and least stable at about pH 7.3
same,NANA-Me stability by ratio NANA:NANA-Me,[1]; pH 7.4,most stable at NANA:NANA-Me of 1:4 and least stable at NANA:NANA-Me of 1:1
CCOC(=O)C1=C[C@@H](OC(CC)CC)[C@H](NC(C)=O)[C@@H](N)C1 [Tamiflu],therapeutic efficacy compared to vehicle controls,[3],did not show significant efficacy
same,body weight,[2],maintained better body weight
same,deaths (survival rate),[2],significantly reduced the deaths
same,inflammation of lung and intestine (HE stained tissue sections),[2],Severe inflammation
same,lung cytokine level of IL-1β,[2],remained abnormally higher
same,lung cytokine level of IL-6,[2],remained abnormally higher
same,lung cytokine level of TNF-α,[2],remained abnormally higher
same,serum cytokine level of IL-6,[2],significantly reduced
same,serum cytokine level of TNF-α,[2],significantly reduced
same,deaths (survival rate),[2]; listed as Tamilu,did not show significant effect
CC[C@H]1OC(=O)C[C@@H](O)[C@H](C)[C@@H](O[C@@H]2O[C@H](C)[C@@H](O)[C@H](N(C)C)[C@H]2O)[C@@H](CCN2C[C@H](C)C[C@H](C)C2)C[C@@H](C)C(=O)/C=C/C(C)=C/[C@@H]1CO[C@@H]1O[C@H](C)[C@@H](O)[C@@H](OC)[C@H]1OC [Tilmicosin],Odds Ratio,[4]; death,5.76
same,Death,"[4]; number of piglets, nursery feed for 4 days from day 15 of weaning",38
MAb-Regn10987: naturally occurred human monoclonal antibody specific to the COVID-19 (SARS-CoV-2) S1 protein,binding to human inflammatory tissues or cancer tissues,[5],bound broadly
same,binding to damaged A549 cells,[6]; A549 cells with missed sialic acid on the cell surface,strongly bound
same,binding to healthy A549 cells,[6]; healthy (intact) A549 cells,weakly bound
same,binding to human fetal tissues,[7],bound
same,histological changes of lungs of mouse pups (HE),"[8]; mouse, in vivo",Acute lung inflammation and injury
same,histology of the brains of mouse pups (HE),"[8]; mouse, in vivo",Large amount of inflammatory cells infiltration
same,Death (%),"[8]; mouse, in vivo, ip",44.8%
same,Sick (%),"[8]; mouse, in vivo, ip",17.1%
same,Sick + Death (%),"[8]; mouse, in vivo, ip",61.9%
same,Odds Ratio,"[8]; sick and death of mouse pups, vs saline",21.3
